Where “and” joins values, the source holds several entries; their conditions need not be identical. Equal entries are not always repeated. Where two headings read alike, the source gives them in different places.
How the values were obtained:
HIV-1 WT RT = HIV-1 WT RT (Human immunodeficiency virus type 1 group M subtype B, UniProt P03366); experiment: biochemical; format: biochemical; conditions: for inhibition at 10 µM: read-out: % inhibn (10 μM)
HIV-1 WT virus (NL4-3) = experiment: microbe, parasite or virus in culture; format: cell-based; conditions: for cytotoxicity and anti-viral effect, summary graph, result in words: FIGS. 10-12; for EC50 / EC50 (μM): Table 11, CEMSS/NL4-3, NRVC = no reduction in viral CPE; for EC50: read-out: EC50; for inhibitory potency against HIV-1 (CIC50), result in words: CEMSS cell culture, WT virus (NL4-3), relative to parent compounds 1 and 2
Description: Evaluation of these compounds for the inhibition of HIV-1 was determined as the fifty percent cell culture inhibitory concentration (CIC50) in CEMSS cell culture with WT virus (NL4-3).
In this Example, the antiviral and cellular toxicity of NNRTIs was investigated, using the cytopathic cell killing assay described by Yang (Yang et al., “Characteristics of a Group of Non-nucleoside Reverse Transcriptase Inhibitors with Structural Diversity and Potent Anti-Human Immunodeficiency Virus Activity,” Leukemia 9:S75-S85 [1995]). Briefly, in this method cells (e.g., the CEM-SS cell line, available from the NIAID AIDS Research and Reference Program [ARRRP]) were seeded at a density of 5×10^3 cells/well, into the wells of a 96-well microtiter plate. The cells were then infected with HIV virus (either mutant or WT), at a multiplicity of infection (MOI) previously determined to provide complete cell killing by 6 days of culture post-infection (e.g., MOI of 0.01-0.05). Each of the HIV isolates was pre-titered to induce equivalent levels of infection based on cell killing or virus production, prior to their use in these assays. A range of test compound concentrations was added to the wells in triplicate (e.g., serial half-log dilutions) to evaluate inhibition of HIV infection. Controls for each assay included drug controls (drug colorimetric control wells), drug cytotoxicity control wells (cells with drug), virus control wells (cells with virus), and cell viability controls (cells only). Positive control drugs (e.g. AZT and ddC) were also run in parallel.
After six days of incubation at 37° C., cell viability was determined spectrophotometrically at 450 nm for each well, using the metabolic reduction of XTT to a soluble colored formazan. (See, Gartner and Popovic, “Virus Isolation and Production, in Aldovini and Walker (eds.), Techniques in HIV Research, Stockton Press, NY, pp. […] [1991]; and Nara and Fischinger, “Quantitative Infectivity Assay for HIV-1 and HIV-2, ” Nature 332:469-470 [1988]).
The in vitro therapeutic index (TI50) was defined as the fold-difference between the EC50 and IC50. The results for the various compounds are included in FIGS. 8 and 19.

[1] = Human immunodeficiency virus 1, NL43, CEM-SS

Row | Compound | melting point | further results
1 | Fc1cccc(F)c1-c1nc2ccccc2n1Cc1ccccc1 [Compound 28, 1-benzyl-2-(2,6-difluorophenyl)benzimidazole] | 124 °C | RT inhibition, result in words (HIV-1 WT RT; WT RT): decrease in inhibition
2 | Cc1cccc2c1nc(-c1c(F)cccc1F)n2Cc1ccccc1 [Compound 29, 1-benzyl-2-(2,6-difluorophenyl)-4-methylbenzimidazole] | 112 to 117 °C | RT inhibition, result in words (HIV-1 WT RT; WT RT): decrease in inhibition
3 | Cc1cccc2c1nc(-c1c(F)cccc1F)n2Cc1c(Cl)cccc1Cl [Compound 30, 1-(2,6-dichlorobenzyl)-2-(2,6-difluorophenyl)-4-methylbenzimidazole] | 202 to 203 °C | RT inhibition, result in words (HIV-1 WT RT; WT RT): decrease in inhibition
4 | Cc1cccc2c1nc(C(C)C)n2Cc1c(F)cccc1F [Compound 34, 1-(2,6-difluorobenzyl)-2-isopropyl-4-methylbenzimidazole] | 151 to 153 °C | cytotoxicity and anti-viral effect, summary graph, result in words (HIV-1 WT virus (NL4-3)): effective therapeutic dose
5 | Fc1cccc(F)c1Cn1c(-c2c(F)cccc2F)nc2cc(Br)ccc21 [Compound 38, 1-(2,6-Difluorobenzyl)-2-(2,6-difluorophenyl)-5-bromobenzimidazole] | 155 to 156 °C | cytotoxicity and anti-viral effect, summary graph, result in words (HIV-1 WT virus (NL4-3)): inactive
6 | O=C(c1c(F)cccc1F)n1c(-c2c(F)cccc2F)nc2ccccc21 [Compound 47, 1-(2,6-difluorobenzoyl)-2-(2,6-difluorophenyl)benzimidazole] | – | inhibition at 10 µM (HIV-1 WT RT; Table 2, 10 μM drug, WT RT, rC-dG template primer): 8%; RT inhibition, result in words (HIV-1 WT RT; WT RT): did not show appreciable RT inhibition activity
7 | Cc1cccc2c1nc(CO)n2Cc1c(F)cccc1F [Compound 48, 1-(2,6-difluorobenzyl)-2-hydroxymethyl-4-methylbenzimidazole] | – | inhibition at 10 µM (HIV-1 WT RT; Table 3, 10 μM drug, WT RT, rC-dG template primer): 12%; % inhibn (1 μM) (HIV-1 WT RT; Table 6, 1 μM drug, WT HIV-1 RT, average of two experiments done in triplicates): 51%; IC50 (HIV-1 WT RT; Table 11, WT RT, read-out: IC50): 1880 nM; EC50 (HIV-1 WT virus (NL4-3)): 2400 nM
8 | CC(=O)OCc1cccc2c1nc(-c1c(F)cccc1F)n2Cc1c(F)cccc1F [Compound 51, 1-(2,6-difluorobenzyl)-2-(2,6-difluorophenyl)-4-acetoxymethylbenzimidazole] | – | EC50 (HIV-1 WT virus (NL4-3); [1]): 59 nM
9 | Oc1cccc2c1nc(-c1c(F)cccc1F)n2Cc1c(F)cccc1F [Compound 52, 1-(2,6-Difluorobenzyl)-2-(2,6-difluorophenyl)-4-hydroxyl-benzimidazole] | 257 to 259 °C | EC50 (HIV-1 WT virus (NL4-3); [1]): 650 nM
10 | N#Cc1cccc2c1nc(-c1c(F)cccc1F)n2Cc1c(F)cccc1F [Compound 60, 1-(2,6-difluorobenzyl)-2-(2,6-difluorophenyl)-4-cyanobenzimidazole] | – | EC50 (HIV-1 WT virus (NL4-3); [1]): 430 nM
11 | N=C(NO)c1cccc2c1nc(-c1c(F)cccc1F)n2Cc1c(F)cccc1F [Compound 61, N-hydroxy 1-(2,6-difluorobenzyl)-2-(2,6-difluorophenyl)benzimidazole-4-carboxamidine] | 214 to 216 °C and 213 to 216 °C | inhibitory potency against HIV-1 (CIC50), result in words (HIV-1 WT virus (NL4-3)): clearly detrimental to potency; EC50 (HIV-1 WT virus (NL4-3); [1]): 190 nM
12 | NC(=O)c1cccc2c1nc(-c1c(F)cccc1F)n2Cc1c(F)cccc1F [Compound 62, 1-(2,6-difluorobenzyl)-2-(2,6-difluorophenyl)benzimidazole-4-carboxylic acid amide] | 260 to 261 °C | inhibitory potency against HIV-1 (CIC50), result in words (HIV-1 WT virus (NL4-3)): clearly detrimental to potency; EC50 (HIV-1 WT virus (NL4-3); [1]): 4900 nM
13 | O=C(O)c1cccc2c1nc(-c1c(F)cccc1F)n2Cc1c(F)cccc1F [Compound 64, 1-(2,6-Difluorobenzyl)-2-(2,6-difluorophenyl)benzimidazole-4-carboxylate] | 179 to 180 °C and 178 to 180 °C | inhibitory potency against HIV-1 (CIC50), result in words (HIV-1 WT virus (NL4-3)): clearly detrimental to potency; EC50 (μM) (HIV-1 WT virus (NL4-3)): NRVC
14 | CC(C)(O)c1cccc2c1nc(-c1c(F)cccc1F)n2Cc1c(F)cccc1F [Compound 65, 1-(2,6-Difluorobenzyl)-2-(2,6-difluorophenyl)-4-benzimidazoyl-2-propanol] | – | EC50 (HIV-1 WT virus (NL4-3)): 6340 nM
15 | C=C(C)c1cccc2c1nc(-c1c(F)cccc1F)n2Cc1c(F)cccc1F [Compound 66, 1-(2,6-Difluorobenzyl)-2-(2,6-difluorophenyl)-4-isopropenylbenzimidazole] | 156 to 158 °C | EC50 (HIV-1 WT virus (NL4-3); [1]): 1440 nM
16 | OCc1cccc2c1nc(-c1c(F)cccc1F)n2Cc1c(F)cccc1F [Compound 67, 1-(2,6-Difluorobenzyl)-2-(2,6-difluorophenyl)-4-hydroxymethylbenzimidazole] | – | EC50 (HIV-1 WT virus (NL4-3); [1]): 23 nM
17 | O=Cc1cccc2c1nc(-c1c(F)cccc1F)n2Cc1c(F)cccc1F [Compound 68, 1-(2,6-Difluorobenzyl)-2-(2,6-difluorophenyl)-benzimidazole-4-carbaldehyde] | 151 to 153 °C | EC50 (HIV-1 WT virus (NL4-3); [1]): 120 nM
18 | Fc1cccc(F)c1Cn1c(-c2c(F)cccc2F)nc2c(CCl)cccc21 [Compound 69, 1-(2,6-difluorobenzyl)-2-(2,6-difluorophenyl)-4-chloromethylbenzimidazole] | 143 to 144 °C | EC50 (HIV-1 WT virus (NL4-3); [1]): 180 nM
19 | CC(=O)NCc1cccc2c1nc(-c1c(F)cccc1F)n2Cc1c(F)cccc1F [Compound 72] | – | EC50 (μM) (HIV-1 WT virus (NL4-3)): NRVC
20 | CC(=O)N(C)Cc1cccc2c1nc(-c1c(F)cccc1F)n2Cc1c(F)cccc1F [Compound 73, 1-(2,6-Difluorobenzyl)-2-(2,6-difluorophenyl)-4-(N-acetyl-N-methyl)-aminomethylbenzimidazole] | – | EC50 (HIV-1 WT virus (NL4-3)): 580 nM
21 | N#Cc1cccc2c1nc(-c1c(F)cccc1F)n2Cc1c(F)cccc1F [Compound 4007] | – | % inhibn (10 μM) (HIV-1 WT RT; Table 1, 10 μM drug, WT RT, rC-dG template primer): 26%

More lines, main results first:

Row | melting point | Compound | further results
22 | 175 to 176 °C | Cc1cccc2c1nc(-c1ccc3ccccc3c1)n2Cc1c(F)cccc1F | –
23 | 136 °C and 136 to 137 °C | Fc1cccc(F)c1Cn1c(-c2c(F)cccc2F)nc2cc(Cl)ccc21 | –
24 | 163 °C | Fc1cccc(F)c1Cn1c(-c2ccccc2)nc2ccccc21 | –
25 | 152 to 153 °C | Fc1cccc(F)c1Cn1c(-c2c(F)cccc2F)nc2ccc(Cl)cc21 | –
26 | 186 to 188 °C | Cc1cccc2c1nc(-c1cccnc1)n2Cc1c(F)cccc1F | –
27 | 147 to 149 °C | Cc1ccc2c(c1)nc(-c1c(F)cccc1F)n2Cc1c(F)cccc1F | –
28 | 171 to 172 °C | Cc1cccc2c1nc(-c1ccncc1)n2Cc1c(F)cccc1F | –
29 | 172 to 173 °C | Cc1ccc2nc(-c3c(F)cccc3F)n(Cc3c(F)cccc3F)c2c1 | –
30 | 155 to 156 °C | Cc1cccc2c1nc(-c1c(F)cccc1F)n2Cc1c(F)c(F)c(F)c(F)c1F | –
31 | 177 °C and 177 to 178 °C | Cc1cccc2nc(-c3c(F)cccc3F)n(Cc3c(F)cccc3F)c12 | –
32 | 131 to 132 °C | Cc1cccc2c1nc(-c1c(F)cccc1F)n2Cc1cccnc1 | –
33 | 176 to 177 °C | Cc1ccc2c(nc(-c3c(F)cccc3F)n2Cc2c(F)cccc2F)c1C | –
34 | 104 to 106 °C | O=S(=O)(c1ccccc1)n1c(-c2c(F)cccc2F)nc2ccccc21 | –
35 | 153 to 154 °C | Cc1cc(C)c2nc(-c3c(F)cccc3F)n(Cc3c(F)cccc3F)c2c1 | –
36 | 168 to 169 °C | O=[N+]([O-])c1ccc2c(c1)nc(-c1c(F)cccc1F)n2Cc1c(F)cccc1F | –
37 | 136 to 139 °C | COc1cccc2c1nc(C1CC1)n2Cc1c(F)cccc1F | –
38 | 184 to 186 °C | COC(=O)c1cccc2c1nc(-c1c(F)cccc1F)n2Cc1c(F)cccc1F | –
39 | 78 to 79 °C | CC(C)=CCn1c(-c2c(F)cccc2F)nc2c(C)cccc21 [(X = CH3) R = prenyl, 1-(3,3-dimethylallyl)-2-(2,6-difluorophenyl)-4-methylbenzimidazole] | –
40 | 109 °C | Fc1cccc(F)c1COCc1nc2ccccc2n1Cc1c(F)cccc1F [Compound 32, 1-(2,6-difluorobenzyl)-2-(2,6-difluorobenzyloxymethyl)benzimidazole] | –
41 | 99 °C | Cc1nc2ccccc2n1Cc1c(F)cccc1F [Compound 35, 1-(2,6-difluorobenzyl)-2-methylbenzimidazole] | –
42 | 121 to 123 °C | Cc1cccc2c1nc(-c1cccc3ccccc13)n2Cc1c(F)cccc1F [Compound 37, 1-(2,6-difluorobenzyl)-2-(1-naphthyl)-4-methylbenzimidazole] | –
